# Measurements reported in US20240279684A1, “CYTOSOLIC DELIVERY OF GENOME EDITING TOOLS” (SAPREME TECHNOLOGIES B.V., priority 2021, published 2024).
# Tested on: Neuro-2A-cells
# Assay: Slc knock-out / GFP-Puromycin donor knock-in co-transfection, GFP fluorescence
# Type: cell-based, murine
# Conditions: for transfection efficiency: PDD (Cas9-gRNA(Slc26a4)-DNA, GFP-Puromycin-LDS)
# Procedure: For further knock-out experiments, GE1741 and Neuro-2A cells were tested. The integration of a linear donor sequence (LDS) containing the gene for GFP into the genomic DNA was assessed using three kits from Origene (Herford, Germany): The Slcl9a3-KN2.0 (CAT #: KN515911), the Slc25a24-KN2.0 (CAT #: KN515970) and the Slc26a4-KN2.0 (CAT #: KN516006), which kits all three were mouse gene knock-out kits via CRISPR, non-homology mediated. The kits contained all-in-one plasmids, coding for Cas9 and the target specific sgRNAs. The Slc26a4 kit targeted the solute carrier family 26, member 4 in the chromosome 12. The indel efficiency by targeting the locus Slc26a4 could be already shown in Neuro-2A cells (Ryu et al., 2018), and for the linear-donor-kits (Slc19a3, Slc25a24) two different sgRNA-sequences were tested. […] Thus, for the knock-out of different solute carrier genes (Sic) in Neuro-2A-cells via CRISPR/Cas9, neuro-2A-cells were transfected with different kits in order to compare the efficiency of different targets (knocked-out gene) and different integration techniques (see FIG. 8 and FIG. 10).
# FIG. 9A-D Transfection efficiency of saponin-mediated PDD (Cas9-gRNA (Slc26a4)-DNA, LDS-DNA)-transfections. A: Neuro-2A-cells were transfected with PDD-nanoplexes (Cas9-gRNA (Slc26a4)-DNA, GFP-Puromycin-LDS, 4:1 and 8:1 mass ratio when the mass of the peptide and the DNA are considered), with and without GE1741-Co-administration. The application of GE1741 led to a transfection efficiency of 20% and 30%, respectively, for the 4:1 and 8:1 mass ratio. Lipofectamin3000 served as positive control. B-D: Distinct fluorescence intensity increase of Neuro-2A-cells after saponin-mediated GFP-gene knock-in. n≥3; *: significant difference compared to the saponin-free transfection (only nuclease), U-test was performed. FIG. 9B: negative control; FIG. 9C: PDD(Cas9-gRNA(Slc26a4)-DNA, Puro-GFP-LDS), 4:1); FIG. 9D: PDD(Cas9-gRNA(Slc26a4)-DNA, Puro-GFP-LDS), 4:1)+GE1741.
# FIG. 11A, B. Knockout of different solute carrier (Sic) in Neuro-2A-cells—homologous recombination vs. non-homologous recombination. Neuro-2A-cells were transfected using NHR kits and using HR kits in order to compare the efficiency for different targets and different integration techniques, under influence of the absence or presence of saponin GE1741 in the K16-peptide comprising nanoplexes. […] (A) co-transfection of plasmid DNA comprising nucleic acids encoding for Cas9 and gRNA(Slc26a4), and LDS DNA encoding for puromycin and green fluorescent protein (Puro-GFP-LDS). (B) co-transfection of plasmid DNA comprising nucleic acids encoding for Cas9 and gRNA(Slc), and donor template DNA encoding for puromycin and green fluorescent protein (Puro-GFP-DS) provided as DNA vector.
# The co-transfection of Neuro-2A-cells with the plasmid DNA encoding for the Cas9 and the gRNA, and the LDS encoding for the GFP and the Puromycin, was done in a poly-lysine K16 peptide—nucleic acid ratio of 4:1 and 8:1, and plasmid DNA and LDS was complexed equally (500 ng/well). Transfections of cells were performed with and without GE1741 in the cell culture medium in which the cells were cultured. The transfection efficiency under influence of the absence or presence of the saponin was compared to transfection under influence of the presence of Lipofectamin3000 during transfection of the cells.
# The integration of donor sequence into the genome can be performed via non-homologous recombination (‘NHR’) and homologous recombination (‘HR’). […]
structure (smiles),measurement,setting,value
CC(=O)OC1C(C)OC(OC2C(C)OC(OC(=O)C34CCC(C)(C)CC3C3=CCC5C6(C)CCC(OC7OC(C(=O)O)C(O)C(OC8OCC(O)C(O)C8O)C7OC7OC(CO)C(O)C(O)C7O)C(C)(C=O)C6CCC5(C)C3(C)CC4O)C(OC3OC(C)C(OC4OCC(O)C(OC5OCC(O)C(O)C5O)C4O)C(O)C3O)C2O)C(O)C1OC(C)=O (centres unmarked) [GE1741],GFP expression (in words),"HR-knock-in kits (Slc4a4, Slc11a2), circular donor",no GFP expression
same,transfection efficiency vs saponin-free transfection (in words),"NHR-knock-in kits with LDS (Slc26a4, Slc19a3, Slc25a24), U-test",significant increase of transfection efficiency
same,transfection efficiency,4:1 mass ratio,20%
same,transfection efficiency,8:1 mass ratio,30%
same,transfected cells expressing fluorescence,"co-transfection Cas9-gRNA plasmid + LDS, 500 ng/well each, ratio 4:1 and 8:1",over 30%
